Data reported in ChEMBL document CHEMBL4765407, “Design, synthesis and high antitumor potential of new unsymmetrical bisacridine derivatives towards human solid tumors, specifically pancreatic cancers and their unique ability to stabilize DNA G-quadruplexes” (Eur J Med Chem, 2020).

Columns and labels:
DU-145 [1] = assay: Antitumour activity against human DU-145 cells xenografted in Crl:Nu-Foxnl nu mouse assessed as inhibition of tumour growth at total effective dose of 48 mg/kg, ip measured on day 35; type: functional; conditions: DU-145, ip, 840 h, time 35 day, read-out: TGI
HCT-116 [2] = assay: Cytotoxicity against human HCT-116 cells assessed as reduction in cell viability measured after 72 hrs by SRB assay; type: functional, cell-based; conditions: HCT-116, 72 h
MDA-MB-231 [3] = assay: Cytotoxicity against human MDA-MB-231 cells assessed as reduction in cell viability measured after 72 hrs by SRB assay; type: functional, cell-based; conditions: MDA-MB-231, 72 h
NCI-H460 [4] = assay: Cytotoxicity against human NCI-H460 cells assessed as reduction in cell viability measured after 72 hrs by SRB assay; type: functional, cell-based; conditions: NCI-H460, 72 h
NCI-H460 [5] = assay: Antitumour activity against human NCI-H460 cells xenografted in Crl:Nu-Foxnl nu mouse assessed as inhibition of tumour growth at total effective dose of 30 mg/kg, ip measured on day 14; type: functional; conditions: 336 h, time 14 day, read-out: TGI
HT-29 = assay: Cytotoxicity against human HT-29 cells assessed as reduction in cell viability measured after 72 hrs by SRB assay; type: functional, cell-based; conditions: HT-29, 72 h
W256 [6] = assay: Antitumour activity against Walker 256 adenocarcinoma cells implanted in Wistar rat assessed as increase in animal survival rate by measuring T/C ratio at 6.25 mg/kg, ip qd for 3 days administered on day 3,4,5 after tumor cell transplantation; type: functional; conditions: time 3 day
DU-145 [7] = assay: Cytotoxicity against human DU-145 cells assessed as reduction in cell viability measured after 72 hrs by SRB assay; type: functional, cell-based; conditions: DU-145, 72 h
LNCaP = assay: Cytotoxicity against human LNCaP cells assessed as reduction in cell viability measured after 72 hrs by SRB assay; type: functional, cell-based
MIA PaCa-2 = assay: Cytotoxicity against human MIA PaCa-2 cells assessed as reduction in cell viability measured after 72 hrs by SRB assay; type: functional, cell-based; conditions: MIA PaCa-2, 72 h
DU-145 [8] = assay: Antitumour activity against human DU-145 cells xenografted in Crl:Nu-Foxnl nu mouse assessed as inhibition of tumour growth at total effective dose of 8 mg/kg, iv measured on day 64; type: functional; conditions: DU-145, iv, 1536 h, time 64 day, read-out: TGI
HCT-116 [9] = assay: Antitumour activity against human HCT-116 cells xenografted in Crl:Nu-Foxnl nu mouse assessed as inhibition of tumour growth at total effective dose of 18 mg/kg, ip measured on day 14; type: functional; conditions: HCT-116, ip, 336 h, time 14 day, read-out: TGI
[10] = Stabilization of ds 5'-FAM-d(TATAGCTATA-HEG-TATAGCTATA)-TAMRA-3' (unknown origin) assessed as change in melting temperature at 10 microM measured after 15 mins by FRET assay; conditions: Homo sapiens
PANC-1 [11] = assay: Cytotoxicity against human PANC-1 cells assessed as reduction in cell viability measured after 72 hrs by SRB assay; type: functional, cell-based; conditions: PANC-1, 72 h
Quadruplex DNA [12] = assay: Stabilization of 5'-FAM/3'-TAMRA labeled K-Ras G4 quadruplex DNA (unknown origin) assessed as change in melting temperature at 10 microM measured after 15 mins by FRET assay; type: nucleic-acid assay
MCF7 = assay: Cytotoxicity against human MCF7 cells assessed as reduction in cell viability measured after 72 hrs by SRB assay; type: functional, cell-based; conditions: MCF7, 72 h
PC-3 = assay: Cytotoxicity against human PC-3 cells assessed as reduction in cell viability measured after 72 hrs by SRB assay; type: functional, cell-based; conditions: PC-3, 72 h
ASPC1 = assay: Cytotoxicity against human ASPC1 cells assessed as reduction in cell viability measured after 72 hrs by SRB assay; type: functional, cell-based; conditions: ASPC1, 72 h
Quadruplex DNA [13] = assay: Stabilization of 5'-FAM/3'-TAMRA labeled telomeric G4 quadruplex DNA F21T (unknown origin) assessed as change in melting temperature at 10 microM measured after 15 mins by FRET assay; type: nucleic-acid assay
Quadruplex DNA [14] = assay: Stabilization of 5'-FAM/3'-TAMRA labeled c-Myc promoter G4 quadruplex DNA FPu18 (unknown origin) assessed as change in melting temperature at 10 microM measured after 15 mins by FRET assay; type: nucleic-acid assay
NCI-H460 [15] = assay: Antitumour activity against human NCI-H460 cells xenografted in Crl:Nu-Foxnl nu mouse assessed as inhibition of tumour growth at total effective dose of 48 mg/kg, iv measured on day 23; type: functional; conditions: 552 h, time 23 day, read-out: TGI
DU-145 [16] = assay: Antitumour activity against human DU-145 cells xenografted in Crl:Nu-Foxnl nu mouse assessed as inhibition of tumour growth at total effective dose of 16 mg/kg, iv measured on day 35; type: functional; conditions: DU-145, iv, 840 h, time 35 day, read-out: TGI
HCT-116 [17] = assay: Antitumour activity against human HCT-116 cells xenografted in Crl:Nu-Foxnl nu mouse assessed as inhibition of tumour growth at total effective dose of 24 mg/kg, iv measured on day 30; type: functional; conditions: HCT-116, iv, 720 h, time 30 day, read-out: TGI
W256 [18] = assay: Antitumour activity against Walker 256 adenocarcinoma cells implanted in Wistar rat assessed as increase in animal survival rate by measuring T/C ratio at 2.5 mg/kg, ip qd for 3 days administered on day 3,4,5 after tumor cell transplantation; type: functional; conditions: time 3 day
UMUC3 = assay: Cytotoxicity against human UMUC3 cells assessed as reduction in cell viability measured after 72 hrs by SRB assay; type: functional, cell-based; conditions: UMUC3, 72 h
PANC-1 [19] = assay: Antitumour activity against human PANC-1 cells xenografted in Crl:Nu-Foxnl nu mouse assessed as inhibition of tumour growth at total effective dose of 120 mg/kg, iv measured on day 51; type: functional; conditions: PANC-1, iv, 1224 h, time 51 day, read-out: TGI
DU-145 [20] = assay: Antitumour activity against human DU-145 cells xenografted in Crl:Nu-Foxnl nu mouse assessed as inhibition of tumour growth at total effective dose of 32 mg/kg, iv measured on day 63; type: functional; conditions: DU-145, iv, 1512 h, time 63 day, read-out: TGI
MDA-MB-231 [21] = assay: Antitumour activity against human MDA-MB-231 cells xenografted in Crl:Nu-Foxnl nu mouse assessed as inhibition of tumour growth at total effective dose of 8 mg/kg, iv measured on day 50; type: functional; conditions: MDA-MB-231, iv, 1200 h, time 50 day, read-out: TGI
BXPC-3 = assay: Cytotoxicity against human BXPC-3 cells assessed as reduction in cell viability measured after 72 hrs by SRB assay; type: functional, cell-based; conditions: BXPC-3, 72 h
NCI-H460 [22] = assay: Antitumour activity against human NCI-H460 cells xenografted in Crl:Nu-Foxnl nu mouse assessed as inhibition of tumour growth at total effective dose of 10 mg/kg, iv measured on day 21; type: functional; conditions: 504 h, time 21 day, read-out: TGI
DU-145 [23] = assay: Antitumour activity against human DU-145 cells xenografted in Crl:Nu-Foxnl nu mouse assessed as inhibition of tumour growth at total effective dose of 8 mg/kg, iv measured on day 33; type: functional; conditions: DU-145, iv, 792 h, time 33 day, read-out: TGI
W256 [24] = assay: Antitumour activity against Walker 256 adenocarcinoma cells implanted in Wistar rat assessed as increase in animal survival rate by measuring T/C ratio at 2 mg/kg, ip qd for 3 days administered on day 3,4,5 after tumor cell transplantation; type: functional; conditions: time 3 day

| Structure (SMILES) | IC50 (HCT-116 [2]) [nM] | IC50 (MDA-MB-231 [3]) [nM] | IC50 (NCI-H460 [4]) [nM] | IC50 (HT-29) [nM] | IC50 (DU-145 [7]) [nM] | IC50 (LNCaP) [nM] | IC50 (MIA PaCa-2) [nM] | ΔTm [10] [°C] | IC50 (PANC-1 [11]) [nM] | ΔTm (Quadruplex DNA [12]) [°C] | IC50 (MCF7) [nM] | IC50 (PC-3) [nM] | IC50 (ASPC1) [nM] | ΔTm (Quadruplex DNA [13]) [°C] | ΔTm (Quadruplex DNA [14]) [°C] | IC50 (UMUC3) [nM] | further results |
| --- | --- | --- | --- | --- | --- | --- | --- | --- | --- | --- | --- | --- | --- | --- | --- | --- | --- |
| Cc1ccc([N+](=O)[O-])c2c(NCCCN3CCN(CCCNc4ccc(C)c5[nH]c6ccc(O)cc6c(=O)c45)CC3)c3ccccc3nc12 | 47 | 48 | 40 | 61 | 46 | 300 | 67 | – | – | – | – | – | – | – | – | – | inhibition in vivo at 48 mg/kg (DU-145 [1]): 25%; inhibition in vivo at 30 mg/kg (NCI-H460 [5]): 6%; T/C (W256 [6]): 300% |
| O=c1c2ccccc2[nH]c2c([N+](=O)[O-])ccc(NCCCN3CCN(CCCNc4c5ccccc5nc5cccc([N+](=O)[O-])c45)CC3)c12 | 20 | 28 | 9 | – | 11 | – | 28 | 3.2 | 56 | 25.1 | 77 | 26 | 78 | 8.5 | 23.7 | 17 | inhibition in vivo at 8 mg/kg (DU-145 [8]): 81%; inhibition in vivo at 18 mg/kg (HCT-116 [9]): 52%; inhibition in vivo at 48 mg/kg (NCI-H460 [15]): 60%; inhibition in vivo at 16 mg/kg (DU-145 [16]): 77%; inhibition in vivo at 24 mg/kg (HCT-116 [17]): 34%; T/C (W256 [18]): 400% |
| Cc1ccc(NCCCN2CCN(CCCNc3c4ccccc4nc4cccc([N+](=O)[O-])c34)CC2)c2c(=O)c3cc(O)ccc3[nH]c12 | 19 | 28 | 5 | 23 | 20 | 84 | 16 | 1.7 | 27 | 27.6 | 113 | 48 | 79 | 7.3 | 17.9 | 9.5 | inhibition in vivo at 120 mg/kg (PANC-1 [19]): 75%; inhibition in vivo at 32 mg/kg (DU-145 [20]): 90%; inhibition in vivo at 8 mg/kg (MDA-MB-231 [21]): 30%; IC50 (BXPC-3): 59 nM; inhibition in vivo at 10 mg/kg (NCI-H460 [22]): 42%; inhibition in vivo at 8 mg/kg (DU-145 [23]): 51%; T/C (W256 [24]): 250% |
